Active and inactive are the calls of the source. No rule for the calls is given here.
Test system: CCRIS mutagenicity, Ames/micronucleus/aberration tests
Experiment: CCRIS mutagenicity studies
[1] = Test System: AMES SALMONELLA TYPHIMURIUM, Strain/Indicator: TA98, Metabolic Activation: NONE, Method: PREINCUBATION
[2] = Test System: AMES SALMONELLA TYPHIMURIUM, Strain/Indicator: TA100, Metabolic Activation: NONE, Method: PREINCUBATION

O=[N+]([O-])c1ccc(CNc2ncnc3c2ncn3[C@@H]2O[C@H](CO)[C@@H](O)[C@H]2O)cc1
mutagenic call (Test System: AMES SALMONELLA TYPHIMURIUM, Strain/Indicator: TA98(1,8-DNP), Metabolic Activation: NONE, Method: PREINCUBATION): inactive; negative
mutagenic call (Test System: AMES SALMONELLA TYPHIMURIUM, Strain/Indicator: TA98(1,8-DNP), Metabolic Activation: RAT, LIVER, S-9, PCB, Method: PREINCUBATION): inactive; negative
mutagenic call (Test System: AMES SALMONELLA TYPHIMURIUM, Strain/Indicator: TA98(NR), Metabolic Activation: NONE, Method: PREINCUBATION): inactive; negative
mutagenic call (Test System: AMES SALMONELLA TYPHIMURIUM, Strain/Indicator: TA98(NR), Metabolic Activation: RAT, LIVER, S-9, PCB, Method: PREINCUBATION): inactive; negative
mutagenic call [1]: inactive; negative
mutagenic call (Test System: AMES SALMONELLA TYPHIMURIUM, Strain/Indicator: TA98, Metabolic Activation: RAT, LIVER, S-9, PCB, Method: PREINCUBATION): inactive; negative
mutagenic call (Test System: AMES SALMONELLA TYPHIMURIUM, Strain/Indicator: TA100(1,8-DNP), Metabolic Activation: NONE, Method: PREINCUBATION): inactive; negative
mutagenic call (Test System: AMES SALMONELLA TYPHIMURIUM, Strain/Indicator: TA100(1,8-DNP), Metabolic Activation: RAT, LIVER, S-9, PCB, Method: PREINCUBATION): inactive; negative
mutagenic call (Test System: AMES SALMONELLA TYPHIMURIUM, Strain/Indicator: TA100(NR), Metabolic Activation: NONE, Method: PREINCUBATION): inactive; negative
mutagenic call (Test System: AMES SALMONELLA TYPHIMURIUM, Strain/Indicator: TA100(NR), Metabolic Activation: RAT, LIVER, S-9, PCB, Method: PREINCUBATION): inactive; negative
mutagenic call [2]: inactive; negative
mutagenic call (Test System: AMES SALMONELLA TYPHIMURIUM, Strain/Indicator: TA100, Metabolic Activation: RAT, LIVER, S-9, PCB, Method: PREINCUBATION): inactive; negative
mutagenic call (Test System: AMES SALMONELLA TYPHIMURIUM, Strain/Indicator: YG1020, Metabolic Activation: NONE, Method: PREINCUBATION): active; positive
mutagenic call (Test System: AMES SALMONELLA TYPHIMURIUM, Strain/Indicator: YG1020, Metabolic Activation: RAT, LIVER, S-9, PCB, Method: PREINCUBATION): inactive; negative
mutagenic call (Test System: AMES SALMONELLA TYPHIMURIUM, Strain/Indicator: YG1021, Metabolic Activation: NONE, Method: PREINCUBATION): active; positive
mutagenic call (Test System: AMES SALMONELLA TYPHIMURIUM, Strain/Indicator: YG1021, Metabolic Activation: RAT, LIVER, S-9, PCB, Method: PREINCUBATION): active; positive
mutagenic call (Test System: AMES SALMONELLA TYPHIMURIUM, Strain/Indicator: YG1024, Metabolic Activation: NONE, Method: PREINCUBATION): active; positive
mutagenic call (Test System: AMES SALMONELLA TYPHIMURIUM, Strain/Indicator: YG1024, Metabolic Activation: RAT, LIVER, S-9, PCB, Method: PREINCUBATION): inactive; negative
mutagenic call (Test System: AMES SALMONELLA TYPHIMURIUM, Strain/Indicator: YG1025, Metabolic Activation: NONE, Method: PREINCUBATION): inactive; negative
mutagenic call (Test System: AMES SALMONELLA TYPHIMURIUM, Strain/Indicator: YG1025, Metabolic Activation: RAT, LIVER, S-9, PCB, Method: PREINCUBATION): inactive; negative
mutagenic call (Test System: AMES SALMONELLA TYPHIMURIUM, Strain/Indicator: YG1026, Metabolic Activation: NONE, Method: PREINCUBATION): inactive; negative
mutagenic call (Test System: AMES SALMONELLA TYPHIMURIUM, Strain/Indicator: YG1026, Metabolic Activation: RAT, LIVER, S-9, PCB, Method: PREINCUBATION): inactive; negative
mutagenic call (Test System: AMES SALMONELLA TYPHIMURIUM, Strain/Indicator: YG1029, Metabolic Activation: NONE, Method: PREINCUBATION): inactive; negative
mutagenic call (Test System: AMES SALMONELLA TYPHIMURIUM, Strain/Indicator: YG1029, Metabolic Activation: RAT, LIVER, S-9, PCB, Method: PREINCUBATION): inactive; negative

C[C@H]1C[C@@]23CCC4C[C@](C)(C(=O)O)CC[C@@]4(C)[C@@H]2CC[C@]1(O)C3 (some centres not stated)
mutagenic call (Test System: AMES SALMONELLA TYPHIMURIUM, Strain/Indicator: TM677, Metabolic Activation: RAT, LIVER, S-9, AROCLOR 1254, Method: PREINCUBATION): inactive; negative

O/N=C/c1ccccn1
mutagenic call (Test System: AMES SALMONELLA TYPHIMURIUM, Strain/Indicator: TA102, Metabolic Activation: RAT, LIVER, S-9, PHENOBARBITAL AND 5,6-BENZOFLAVONE, Method: STANDARD PLATE): inactive; negative
mutagenic call (Test System: AMES SALMONELLA TYPHIMURIUM, Strain/Indicator: TA2638, Metabolic Activation: RAT, LIVER, S-9, PHENOBARBITAL AND 5,6-BENZOFLAVONE, Method: STANDARD PLATE): inactive; negative
mutagenic call (Test System: E. COLI, Strain/Indicator: WP2 (PKM101), Metabolic Activation: RAT, LIVER, S-9, PHENOBARBITAL AND 5,6-BENZOFLAVONE, Method: STANDARD PLATE): inactive; negative
mutagenic call (Test System: E. COLI, Strain/Indicator: WP2 UVRA (PKM101), Metabolic Activation: RAT, LIVER, S-9, PHENOBARBITAL AND 5,6-BENZOFLAVONE, Method: STANDARD PLATE): active; positive

C1=CC2C3C=CC(C3)C2C1 (configuration not stated)
mutagenic call (Test System: AMES SALMONELLA TYPHIMURIUM, Strain/Indicator: TA98, Metabolic Activation: HAMSTER, LIVER, S-9, AROCLOR 1254 (10%), Method: PREINCUBATION): inactive; negative
mutagenic call [1]: inactive; negative
mutagenic call (Test System: AMES SALMONELLA TYPHIMURIUM, Strain/Indicator: TA98, Metabolic Activation: RAT LIVER S-9, PHENOBARBITAL AND BETA-NAPHTHOFLAVONE, Method: PREINCUBATION): inactive; negative
mutagenic call (Test System: AMES SALMONELLA TYPHIMURIUM, Strain/Indicator: TA98, Metabolic Activation: RAT, LIVER, S-9, AROCLOR 1254 (10%), Method: PREINCUBATION): inactive; negative
mutagenic call (Test System: AMES SALMONELLA TYPHIMURIUM, Strain/Indicator: TA100, Metabolic Activation: HAMSTER, LIVER, S-9, AROCLOR 1254 (10%), Method: PREINCUBATION): inactive; negative
mutagenic call [2]: inactive; negative
mutagenic call (Test System: AMES SALMONELLA TYPHIMURIUM, Strain/Indicator: TA100, Metabolic Activation: RAT LIVER S-9, PHENOBARBITAL AND BETA-NAPHTHOFLAVONE, Method: PREINCUBATION): inactive; negative
mutagenic call (Test System: AMES SALMONELLA TYPHIMURIUM, Strain/Indicator: TA100, Metabolic Activation: RAT, LIVER, S-9, AROCLOR 1254 (10%), Method: PREINCUBATION): inactive; negative
mutagenic call (Test System: AMES SALMONELLA TYPHIMURIUM, Strain/Indicator: TA1535, Metabolic Activation: HAMSTER, LIVER, S-9, AROCLOR 1254 (10%), Method: PREINCUBATION): inactive; negative
mutagenic call (Test System: AMES SALMONELLA TYPHIMURIUM, Strain/Indicator: TA1535, Metabolic Activation: NONE, Method: PREINCUBATION): inactive; negative
mutagenic call (Test System: AMES SALMONELLA TYPHIMURIUM, Strain/Indicator: TA1535, Metabolic Activation: RAT LIVER S-9, PHENOBARBITAL AND BETA-NAPHTHOFLAVONE, Method: PREINCUBATION): inactive; negative
mutagenic call (Test System: AMES SALMONELLA TYPHIMURIUM, Strain/Indicator: TA1535, Metabolic Activation: RAT, LIVER, S-9, AROCLOR 1254 (10%), Method: PREINCUBATION): inactive; negative
mutagenic call (Test System: AMES SALMONELLA TYPHIMURIUM, Strain/Indicator: TA1537, Metabolic Activation: HAMSTER, LIVER, S-9, AROCLOR 1254 (10%), Method: PREINCUBATION): inactive; negative
mutagenic call (Test System: AMES SALMONELLA TYPHIMURIUM, Strain/Indicator: TA1537, Metabolic Activation: NONE, Method: PREINCUBATION): inactive; negative
mutagenic call (Test System: AMES SALMONELLA TYPHIMURIUM, Strain/Indicator: TA1537, Metabolic Activation: RAT LIVER S-9, PHENOBARBITAL AND BETA-NAPHTHOFLAVONE, Method: PREINCUBATION): inactive; negative
mutagenic call (Test System: AMES SALMONELLA TYPHIMURIUM, Strain/Indicator: TA1537, Metabolic Activation: RAT, LIVER, S-9, AROCLOR 1254 (10%), Method: PREINCUBATION): inactive; negative
mutagenic call (Test System: E.COLI, Strain/Indicator: WP2UVRA, Metabolic Activation: NONE, Method: PREINCUBATION): inactive; negative
mutagenic call (Test System: E.COLI, Strain/Indicator: WP2UVRA, Metabolic Activation: RAT LIVER S-9, PHENOBARBITAL AND BETA-NAPHTHOFLAVONE, Method: PREINCUBATION): inactive; negative

Source: PubChem BioAssay AID1259407 (Chemical Carcinogenesis Research Information System (CCRIS), 2018)
